Results on ten compounds are retold here after PubChem BioAssay (NCI).

Each structure is given as a SMILES string.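 Interpolation was linear, between the two tested concentrations surrounding the appropriate level; five concentrations were tested over 48 hours in 96-well plates. GI50: concentration for 50% inhibition of growth. TGI: total growth inhibition.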

Holding throughout (experiment): NCI tumour cell line growth inhibition, 48 h
For test [1], the system named is HCC-2998 colon.
For test [2], the system named is DU-145 prostate.
The test system of test [3] is PC-3 prostate.
Test [4] concerns SK-MEL-5 melanoma.
The test system of test [5] is NCI-H522 lung.
Test [6] concerns HOP-92 NSCLC.
Test [7] has as its system NCI-H23 lung.
Test [8] relates to UACC-62 melanoma.
The test system of test [9] is HL-60(TB) leukemia.
Test [10] has as its system T-47D breast.

In the case of `C=CCCCCCCCCC(=O)[O][Sn]([CH2]CCC)([CH2]CCC)[CH2]CCC`, the GI50 in test [1] was 0.156 µM; in [2], 0.15 µM; in test [3], 0.187 µM; in test [4], 0.148 µM; in test [5], 0.141 µM; in test [6], 0.075 µM. For the same compound, the GI50 in test [7] was 0.115 µM; in [8], 0.168 µM; in test [9] it was 0.169 µM. Besides, the TGI is 0.291 µM in [1]; 0.29 µM in test [2]; 0.409 µM in test [3]; 0.282 µM in test [4]; 0.296 µM in test [5]; 0.24 µM in test [6]. The values for the TGI in [7], in test [8] and in [9] were 0.254 µM, 0.349 µM and 0.464 µM, respectively.

Take `COC1/C=C\C=C(/C)C(=O)NC2=CC(=O)C(=O)C(=C2O)CC(C)CC(OC)C(O)C(C)/C=C(\C)C1OC(N)=O` (configuration not stated): the TGI in [2] is 35.5 µM; in test [3], above 37.7 µM; in [10], 70.9 µM; in test [4], 43.7 µM; in test [5], 18.3 µM; in test [6] it was 21 µM. The TGI is above 100 µM in test [7], above 32.6 µM in [8] and above 35.5 µM in test [9].

Regarding `Cn1c(=O)c2[nH]c(SCc3ccccn3)nc2n(C)c1=S`, the TGI in test [2], in test [3], in test [10], in test [4], in test [5] and in test [6] was above 100 µM throughout. Also, the TGI in test [7], in [8] and in [9] was above 100 µM throughout.

`NC(=O)c1ccc(I)c(N)c1`: the GI50 in test [1], in test [2], in test [10], in test [4], in test [5] and in test [6] was above 100 µM throughout. In addition, the GI50 in [7], in [8] and in [9] was above 100 µM each time. Besides, the TGI in test [1], in test [2], in test [10], in [4], in [5] and in test [6] was above 100 µM throughout. The TGI in test [7], in [8] and in [9] was above 100 µM each time.

Turning to `CCC(C)c1c(Cl)nc(Cl)nc1Cl` (configuration not stated), the TGI in [1] is 60.6 µM; in test [2], 30.4 µM; in [3], 44.1 µM; in test [4], 13 µM; in [5], 2.51 µM; in [7], 15.5 µM. Also, the TGI in test [8] is 52.8 µM; in [9] it was above 100 µM.

For `CC1=CC(=Nc2ccc(N(CCCl)CCCl)cc2)C=C(C)C1=O`, the GI50 in test [1] is 2.29 µM; in test [2], 0.374 µM; in test [3], 1.48 µM; in [10], 0.64 µM; in test [4], 1.72 µM; in test [6], 0.392 µM. The GI50 was 0.768 µM in test [7], 1.12 µM in [8] and 0.309 µM in [9]. Also, the TGI stood at 9.83 µM in [1]; 4.57 µM in test [2]; 7.08 µM in test [3]; 3.22 µM in test [10]; 5.17 µM in test [4]; 2.06 µM in test [6]. In addition, the figures for the TGI in test [7], in test [8] and in [9] were 4.36 µM, 6.47 µM and 2.9 µM, respectively.

Turning to `CS(=O)(=O)c1ccc([C@H]2O[C@@H](CO)C[C@]2(O)c2ccc(S(C)(=O)=O)cc2)cc1`, the GI50 in [1], in [2], in [3], in test [4], in test [5] and in [6] was above 100 µM throughout. Moreover, the GI50 in test [7], in test [8] and in test [9] was above 100 µM in each case. The TGI in [1], in test [2], in [3], in test [4], in [5] and in test [6] was above 100 µM throughout. Also, the TGI in [7], in test [8] and in [9] was above 100 µM in each case.

In the case of `C/C(CC(=O)Nc1ccc(C)cc1C)=N/N=C(N)N`, the TGI in test [1], in [4], in test [5], in test [6], in test [7] and in [8] was above 100 µM each time. The compound further had a TGI in test [9] above 100 µM.

On to `O=C1CCCCN1CCCCC#Cc1ccccc1C#Cc1ccc([N+](=O)[O-])cc1`, for which the GI50 is 17.5 µM in test [2]; 3.52 µM in [10]; 1.75 µM in [4]; 12.3 µM in test [5]; 4.39 µM in test [6]; 4.23 µM in test [7]. Besides, the GI50 in test [8] was 5.77 µM; in test [9], 1.75 µM. Further, the TGI in test [2] worked out at 36 µM; in test [10], 18.7 µM; in test [4], 3.88 µM; in [5], 59.5 µM; in test [6] it was 27.4 µM; in test [7], 17.1 µM. The TGI in [8] worked out at 20.3 µM; in test [9], 6.64 µM.

Regarding `COc1cc([N+](=O)[O-])cc2c3c(n(C)c12)[C@@]1(C)CCC2c4ccc(OCc5ccccc5)cc4CCC2C1C3` (some centres not stated), the GI50 is 47.9 µM in test [1]; above 100 µM in test [2]; above 100 µM in test [3]; 43.1 µM in test [10]; 78.9 µM in test [4]; 53.6 µM in test [5]. Moreover, the GI50 in test [7] is 68.8 µM; in test [8], above 100 µM. In addition, the TGI in test [1], in test [2], in [3], in test [10], in test [4] and in [5] was above 100 µM in each case. Further, the TGI in test [7] and in test [8] was above 100 µM throughout.
